We go through one substance from patent US20050037989A1, “Inhibition of gene function by delivery of polynucleotide-based gene expression inhibitors to mammalian cells in vivo” (priority 2001, published 2005).

d = 2'-deoxy (DNA); r = 2'-OH (RNA)

One series deals with luc+ gene. The series is described as follows: Inhibition of luciferase gene expression by siRNA in liver cells in vivo (pMIR48 co-injected, tail vein). The note with it: liver one day after injection. Also on record: species or system ICR mice. The method, then:
Plasmid pMIR48 (10 μg), containing the luc+ coding region (Promega Corp.) and a chimeric intron downstream of the cytomegalovirus major immediate-early enhancer/promoter, was mixed with 0.5 or 5 μg siRNA-luc+, diluted in 1-3 ml Ringer's solution (147 mM NaCl, 4 mM KCl, 1.13 mM CaCl2) and injected into the tail vein of ICR mice over […]. One day after injection, the livers were harvested and homogenized in lysis buffer (0.1% Triton X-100, 0.1 M K-phosphate, 1 mM DTT, pH 7.8). Insoluble material was cleared by centrifugation. 10 μl of the cellular extract or extract diluted 10× was analyzed for luciferase activity using the Enhanced Luciferase Assay kit (Mirus).

The subject of series [1] is Luc+ expression. As to the kind of experiment: Dual luciferase (pGL3 control + pRL-SV40) co-injected with siRNA, increased-pressure tail vein injection, organs assayed. Type of series: in vivo, mice. The note with it: one day; for inhibition of target Luc+ expression (Luc+/Renilla Luc ratio): liver, normalized to no siRNA control. On the procedure:
Inhibition of Luciferase expression by siRNA is gene specific in liver in vivo. Two plasmids were injected simultaneously either with or without siRNA-luc+ as described in Example 1. The first plasmid, pGL3 control (Promega Corp, Madison, Wis.), contains the luc+ coding region and a chimeric intron under transcriptional control of the simian virus 40 enhancer and early promoter region. The second, pRL-SV40, contains the coding region for the Renilla reniformis luciferase under transcriptional control of the Simian virus 40 enhancer and early promoter region.
10 μg pGL3 control and 1 μg pRL-SV40 was injected as described in Example 1 with 0, 0.5 or 5.0 μg siRNA-luc+. One day after injection, the livers were harvested and homogenized as described in Example 1. Luc+ and Renilla Luc activities were assayed using the Dual Luciferase Reporter Assay System (Promega).
Inhibition of Luciferase expression by siRNA is gene specific and siRNA specific in liver in vivo. 10 μg pGL3 control and 1 μg pRL-SV40 were injected as described in Example 1 with either 5.0 μg siRNA-luc+ or 5.0 control siRNA-ori. One day after injection, the livers were harvested and homogenized as described in Example 1. Luc+ and Renilla Luc activities were assayed using the Dual Luciferase Reporter Assay System (Promega). Ratios of Luc+ to Renilla Luc were normalized to the siRNA-ori control. siRNA-Luc+ inhibited Luc+ expression in liver by 93% compared to siRNA-ori indicating inhibition by siRNAs is sequence specific in this organ.
In vivo delivery of siRNA by increased-pressure intravascular injection results in strong inhibition of target gene expression in a variety of organs. 10 μg pGL3 Control and 1 μg pRL-SV40 were co-injected with 5 μg siRNA-Luc+ or 5 μg control siRNA (siRNA-ori) targeted to sequence in the plasmid backbone as in example 1. One day after injection, organs were harvested and homogenized and the extracts assayed for target firefly luciferase+ activity and control Renilla luciferase activity. Firefly luciferase+activity was normalized to that Renilla luciferase activity in order to compensate for differences in transfection efficiency between animals.

For series [2], the system named is Luc+ expression. The series is described as follows: Dual luciferase in liver after bile duct delivery of plasmids and siRNA. The class given is in vivo, mice. The note with it: 5.0 μg siRNA, bile duct injection, one day, compared to control siRNA-ori. The method, then: Inhibition of Luciferase expression by siRNA is gene specific and siRNA specific in liver after bile duct delivery in vivo. 10 μg pGL3 control and 1 μg pRL-SV40 with 5.0 μg siRNA-luc+ or 5.0 siRNA-ori were injected into the bile duct of mice. A total volume of 1 ml in Ringer's buffer was delivered at 6 ml/min. […] One day after injection, the liver was harvested and homogenized as described in Example 1. Luc+ and Renilla Luc activities were assayed using the Dual Luciferase Reporter Assay System (Promega). Ratios of Luc+ to Renilla Luc were normalized to the siRNA-ori control. siRNA-Luc+ inhibited Luc+ expression in liver by 88% compared to the control siRNA-ori.

Series [3] has as its system Luc+ expression. The series is described as follows: In vivo delivery of siRNA to mouse liver cells using TransIT In Vivo, dual luciferase. Also noted: species or system ICR mice. As to conditions: for % inhibition of Luc+ expression: normalized to no siRNA control. The method, then:
In vivo delivery of siRNA to mouse liver cells using TransIT™ In Vivo. 10 μg pGL3 control and 1 μg pRL-SV40 were complexed with 11 μl TransIT™ In Vivo in 2.5 ml total volume according the manufacturer's recommendation (Mirus Corporation, Madison, Wis.). For siRNA delivery, 10 μg pGL3 control, 1 μg pRL-SV40, and either 5 μg siRNA-Luc+ or 5 μg control siRNA were complexed with 16 μl TransIT™ In vivo in 2.5 ml total volume. Particles were injected over ˜7 s into the tail vein of 25-30 g ICR mice as described in Example 1. One day after injection, the livers were harvested and homogenized as described in Example 1. Luc+ and Renilla Luc activities were assayed using the Dual Luciferase Reporter Assay System (Promega).

Setting [4] is: Example 4: 5 μg siRNA, compared to control siRNA-ori.
[5] abbreviates: 5 μg siRNA with TransIT In Vivo, liver, one day.

For the substance “siRNA-luc+: annealed oligomers SEQ ID 4 and SEQ ID 5 containing luc+ coding sequence, positions 155-173 of the luc+ reading frame (chain 1 CUUACGCUGAGUACUUCGATT; chain 2 UCGAAGUACUCAGCGUAAGTT; sugars from the 5' end r19 d2, backbone not given here; listed as Photinus pyralis)”, the “inhibition of Luc+ activity” value in the series with luc+ gene (0.5 μg siRNA co-injected with 10 μg pMIR48, tail vein, vs 10 μg pMIR48 alone) is 69%. The “inhibition of Luc+ activity” value in the series with luc+ gene (5 μg siRNA co-injected with 10 μg pMIR48, tail vein) was found to be 93%. Besides, the “inhibition of target Luc+ expression (Luc+/Renilla Luc ratio)” value in the series with Luc+ expression [1] (0.5 μg co-injected siRNA) came out at 73%. In addition, in the series with Luc+ expression [1] (5.0 μg co-injected siRNA), the “inhibition of target Luc+ expression (Luc+/Renilla Luc ratio)” value stood at 82%. The “inhibition of Luc+ expression in liver” value in the series with Luc+ expression [1] (Example 3: 5.0 μg siRNA, compared to siRNA-ori) is 93%. Moreover, in the series on Luc+ expression [1] (setting [4]), the “inhibition of firefly luciferase+ activity, heart” value stood at 74%; the “inhibition of firefly luciferase+ activity, kidney” value amounted to 87%; the “inhibition of firefly luciferase+ activity, liver” value was 95%; the “inhibition of firefly luciferase+ activity, lung” value was found to be 81%. For the same substance, in the series with Luc+ expression [1] (setting [4]), the “inhibition of firefly luciferase+ activity, pancreas” value came out at 92% and the “inhibition of firefly luciferase+ activity, spleen” value amounted to 77%. Moreover, in the series with Luc+ expression [2], the “inhibition of Luc+ expression in liver” value stood at 88%. In addition, in the series with Luc+ expression [3] (setting [5]), the “Luciferase expression (RLUs)” value worked out at 853332 RLUs and the “Renilla expression (RLUs)” value was found to be 4124726 RLUs. In addition, the “% inhibition of Luc+ expression” value in the series on Luc+ expression [3] (5 μg siRNA with TransIT In Vivo) came to 96%. Also, the “% inhibition of Luc+ expression” value in the series on Luc+ expression [3] (5 μg siRNA with TransIT In Vivo, listed as siRNA-Luc+) is 96.0%. The “relative LUC+ expression” value in the series with Luc+ expression [3] (Luc+ to Renilla Luc ratio, liver, one day) was 0.2069.
